Key:
[1] = tested on: late passage (PD40) neonatal keratinocytes; test: Scratch (wound healing) assay in late passage / aging neonatal keratinocytes (FIGS. 7, 10); assay type: cell-based, human; conditions: FIG. 10
From the text: (§1) Cell lines used in these experiments were obtained from Cascade Biologics, Inc. Neonatal keratinocytes (HEKneo-P) were obtained from a pool generated from three donors, designated HEKn(12), PD 8.46; HEKn(15), PD 9.3; and HEKn(16), PD 5.16. Adult keratinocytes were obtained from a single donor, designated HEKa(18). The terms “neonatal” and “adult” refer to the age of the donor, while the terms “young” and “aging” or “late passage” refer to the age of the cell culture, and correspond to the number of population doublings (indicated as PD no.).
(§2) Cells are plated in flasks (5×10^5 cells per flask) and cultured for two days in a humidified chamber at 5% CO2, 37° C. To create the “wound”, a 2 ml plastic pipette is gently dragged to “scratch” the cell surface. The ideal wound is approximately 2-3 mm wide and 50 mm long (along the long axis of the tissue culture flask). The cells are retreated with medium containing either vehicle (DMSO; control sample) or test compositions at multiple concentrations. […]
(§3) Amount of wound closure is determined by measuring the width of the wound over time for extract-treated samples relative to vehicle-treated or other control cells. […] Percentage of wound healing is calculated by the following formula: WH=100−[100×Wn/W0], where Wn is the width of the wound on day n and W0 is the width of the wound on day one (immediately after scratching).

[2] = tested on: aging (PD34) adult keratinocytes; test: Scratch (wound healing) assay in aging adult keratinocytes (FIGS. 6, 8, 9); assay type: cell-based, human; conditions: FIG. 8, comparison of extract and PDGF
From the text: as §1, §2, §3

Substance: PDGF
- wound closure after four days [1]: complete or near-complete wound closure
- state of scratched cell layer by day 4 [2]: confluent or near-confluent
